# Measurements reported in patent US9938562B2, “Naphthalene derived chromogenic enzyme substrates” (Glycosynth Limited, priority 2013, dated 2018).
# Structures can show the parent of a compound that is named as a salt. Where two headings read alike, the source gives them in different places.
# What was measured:
# Assay type in all cases: cell-based
# [1] = system: β-D-glucuronidase-positive strains; test: Hydrolysis by glucuronidase-positive strains
# E. faecium NCTC 7171 = test: Glucuronide screen, agar plates (CPS ID 3 or Columbia agar); settings: E. faecium NCTC 7171, agar
# E. faecalis NCTC 775 = test: as above; settings: E. faecalis NCTC 775, agar
# E. cloacae = test: as above
# [2] = system: clinical isolates of E. coli; test: Glucuronide sensitivity screen, agar plates (CPS ID 3 or Columbia agar); settings: for Negative strains / Positive strains: 100 E. coli strains, 18 h incubation
structure (smiles),measurement,setting,value
"COC(=O)C1OC(Oc2cc3ccccc3cc2O)C(O)C(O)C1O [Compound 13, DHN-β-D-glucuronide-6′-methyl ester]",colour after hydrolysis compared with 12a or 12b,[1],weaker
"O=C(O)[C@H]1O[C@@H](Oc2c[nH]c3cc(Cl)ccc23)[C@H](O)[C@@H](O)[C@@H]1O [Rose-β-D-glucuronide CHA salt, 6-chloro-3-indolyl β-D-glucuronide]",Colour,E. faecium NCTC 7171,−
same,Colour,E. faecalis NCTC 775,−
same,Colour,"E. cloacae; E. cloacae 260329R, agar",−
same,Colour,"E. cloacae; E. cloacae NCTC 11936, agar",−
same,% Sensitivity,[2],81%
same,Negative strains,[2]; agar,19
same,Positive strains,[2]; agar,81
same,Colour,"[2]; E. coli 260262P, agar",Red
same,Colour,"[2]; E. coli 260280Z, agar",Red
same,Colour,"[2]; E. coli 260310H, agar",Red
same,Colour,"[2]; E. coli 260313A, agar",−
same,Colour,"[2]; E. coli 260316T, agar",−
same,Colour,"[2]; E. coli 260327V, agar",Red
same,Colour,"[2]; E. coli 260330Y, agar",Red
same,Colour,"[2]; E. coli 260333P, agar",−
same,Colour,"[2]; E. coli 260345F, agar",Red
same,Colour,"[2]; E. coli 260348K, agar",Red
same,Colour,"[2]; E. coli 260354W, agar",Red
same,Colour,"[2]; E. coli 260364H, agar",−
same,Colour,"[2]; E. coli 260370C, agar",Red
same,Colour,"[2]; E. coli 260375E, agar",Red
same,Colour,"[2]; E. coli 260390B, agar",−
same,Colour,"[2]; E. coli 260396Z, agar",Red
same,Colour,"[2]; E. coli 260398Q, agar",Red
same,Colour,"[2]; E. coli 260399E, agar",Red
same,Colour,"[2]; E. coli 260400N, agar",−
same,Colour,"[2]; E. coli 260401Q, agar",Red
same,Colour,"[2]; E. coli 260402H, agar",Red
same,Colour,"[2]; E. coli 260404W, agar",Red
same,Colour,"[2]; E. coli 260405P, agar",Red
same,Colour,"[2]; E. coli 260406A, agar",−
same,Colour,"[2]; E. coli 260406Y, agar",Red
same,Colour,"[2]; E. coli 260407F, agar",Red
same,Colour,"[2]; E. coli 260408C, agar",Red
same,Colour,"[2]; E. coli 260411Z, agar",Red
same,Colour,"[2]; E. coli 260412Q, agar",Red
same,Colour,"[2]; E. coli 260414H, agar",Red
same,Colour,"[2]; E. coli 260415Y, agar",Red
same,Colour,"[2]; E. coli 260416W, agar",−
same,Colour,"[2]; E. coli 260417P, agar",Red
same,Colour,"[2]; E. coli 260422Y, agar",Red
same,Colour,"[2]; E. coli 260424P, agar",Red
same,Colour,"[2]; E. coli 260425A, agar",Red
same,Colour,"[2]; E. coli 260426F, agar",Red
same,Colour,"[2]; E. coli 260428T, agar",Red
same,Colour,"[2]; E. coli 260431N, agar",Red
same,Colour,"[2]; E. coli 260432E, agar",Red
same,Colour,"[2]; E. coli 260433H, agar",Red
same,Colour,"[2]; E. coli 260434Y, agar",Red
same,Colour,"[2]; E. coli 260435W, agar",Red
same,Colour,"[2]; E. coli 260436P, agar",Red
same,Colour,"[2]; E. coli 260437A, agar",Tr. Red
same,Colour,"[2]; E. coli 260438F, agar",Red
same,Colour,"[2]; E. coli 260439C, agar",Red
same,Colour,"[2]; E. coli 260440S, agar",Red
same,Colour,"[2]; E. coli 260441G, agar",Red
same,Colour,"[2]; E. coli 260458Y, agar",Red
same,Colour,"[2]; E. coli 260459W, agar",Red
same,Colour,"[2]; E. coli 260463D, agar",Red
same,Colour,"[2]; E. coli 260464G, agar",Red
same,Colour,"[2]; E. coli 260471B, agar",−
same,Colour,"[2]; E. coli 260478N, agar",−
same,Colour,"[2]; E. coli 260479Q, agar",Red
same,Colour,"[2]; E. coli 260480M, agar",Red
same,Colour,"[2]; E. coli 260481J, agar",Red
same,Colour,"[2]; E. coli 260483R, agar",−
same,Colour,"[2]; E. coli 260485D, agar",Red
same,Colour,"[2]; E. coli 260486L, agar",Red
same,Colour,"[2]; E. coli 260492J, agar",Red
same,Colour,"[2]; E. coli 260494B, agar",Red
same,Colour,"[2]; E. coli 260495R, agar",−
same,Colour,"[2]; E. coli 260497D, agar",Red
same,Colour,"[2]; E. coli 260502G, agar",Red
same,Colour,"[2]; E. coli 260503Z, agar",Red
same,Colour,"[2]; E. coli 260504N, agar",Red
same,Colour,"[2]; E. coli 260505Q, agar",−
same,Colour,"[2]; E. coli 260506E, agar",Red
same,Colour,"[2]; E. coli 260508Y, agar",Red
same,Colour,"[2]; E. coli 260509W, agar",Red
same,Colour,"[2]; E. coli 260510R, agar",Red
same,Colour,"[2]; E. coli 260511X, agar",Red
same,Colour,"[2]; E. coli 260514G, agar",−
same,Colour,"[2]; E. coli 260515Z, agar",Red
same,Colour,"[2]; E. coli 260521S, agar",Red
same,Colour,"[2]; E. coli 260522Z, agar",Red
same,Colour,"[2]; E. coli 260532S, agar",Red
same,Colour,"[2]; E. coli 260533G, agar",Red
same,Colour,"[2]; E. coli 260536Q, agar",Red
same,Colour,"[2]; E. coli 260537E, agar",−
same,Colour,"[2]; E. coli 260538H, agar",−
same,Colour,"[2]; E. coli 260539Y, agar",Red
same,Colour,"[2]; E. coli 260541R, agar",Red
same,Colour,"[2]; E. coli 260545G, agar",Red
same,Colour,"[2]; E. coli 260547N, agar",Red
same,Colour,"[2]; E. coli 260548Q, agar",Red
same,Colour,"[2]; E. coli 260549E, agar",Red
same,Colour,"[2]; E. coli 260553X, agar",−
same,Colour,"[2]; E. coli 260554D, agar",Red
same,Colour,"[2]; E. coli 260555L, agar",Red
same,Colour,"[2]; E. coli 260563B, agar",Red
same,Colour,"[2]; E. coli 260564R, agar",Red
same,Colour,"[2]; E. coli 260578D, agar",−
same,Colour,"[2]; E. coli 2603121P, agar",−
NC1CCCCC1.O=C(O)[C@H]1O[C@@H](Oc2c[nH]c3ccc(Br)c(Cl)c23)[C@H](O)[C@@H](O)[C@@H]1O [X-β-D-glucuronide CHA salt],Colour,E. faecium NCTC 7171,−
same,Colour,E. faecalis NCTC 775,−
same,Colour,"E. cloacae; E. cloacae 260329R, agar",−
same,Colour,"E. cloacae; E. cloacae NCTC 11936, agar",−
same,% Sensitivity,[2],79%
same,Colour,[2],−
same,Negative strains,[2]; agar,21
same,Positive strains,[2]; agar,79
same,Colour,"[2]; E. coli 260262P, agar",Green
same,Colour,"[2]; E. coli 260280Z, agar",Green
same,Colour,"[2]; E. coli 260310H, agar",Green
same,Colour,"[2]; E. coli 260313A, agar",−
same,Colour,"[2]; E. coli 260316T, agar",−
same,Colour,"[2]; E. coli 260327V, agar",Green
same,Colour,"[2]; E. coli 260330Y, agar",Green
same,Colour,"[2]; E. coli 260333P, agar",−
same,Colour,"[2]; E. coli 260345F, agar",Green
same,Colour,"[2]; E. coli 260348K, agar",Green
same,Colour,"[2]; E. coli 260354W, agar",Green
same,Colour,"[2]; E. coli 260364H, agar",−
same,Colour,"[2]; E. coli 260370C, agar",Green
same,Colour,"[2]; E. coli 260375E, agar",Green
same,Colour,"[2]; E. coli 260390B, agar",−
same,Colour,"[2]; E. coli 260396Z, agar",Green
same,Colour,"[2]; E. coli 260398Q, agar",Green
same,Colour,"[2]; E. coli 260399E, agar",Green
same,Colour,"[2]; E. coli 260400N, agar",−
same,Colour,"[2]; E. coli 260401Q, agar",Green
same,Colour,"[2]; E. coli 260402H, agar",Green
same,Colour,"[2]; E. coli 260404W, agar",Green
same,Colour,"[2]; E. coli 260405P, agar",Green
same,Colour,"[2]; E. coli 260406A, agar",−
same,Colour,"[2]; E. coli 260406Y, agar",Green
same,Colour,"[2]; E. coli 260407F, agar",Green
same,Colour,"[2]; E. coli 260408C, agar",Green
same,Colour,"[2]; E. coli 260411Z, agar",Green
same,Colour,"[2]; E. coli 260412Q, agar",Green
same,Colour,"[2]; E. coli 260414H, agar",Green
same,Colour,"[2]; E. coli 260415Y, agar",Green
same,Colour,"[2]; E. coli 260416W, agar",−
same,Colour,"[2]; E. coli 260417P, agar",Green
same,Colour,"[2]; E. coli 260422Y, agar",Green
same,Colour,"[2]; E. coli 260424P, agar",Green
same,Colour,"[2]; E. coli 260425A, agar",Green
same,Colour,"[2]; E. coli 260426F, agar",Green
same,Colour,"[2]; E. coli 260428T, agar",Green
same,Colour,"[2]; E. coli 260431N, agar",Green
same,Colour,"[2]; E. coli 260432E, agar",Green
same,Colour,"[2]; E. coli 260433H, agar",Green
same,Colour,"[2]; E. coli 260434Y, agar",Green
same,Colour,"[2]; E. coli 260435W, agar",Green
same,Colour,"[2]; E. coli 260436P, agar",Green
same,Colour,"[2]; E. coli 260437A, agar",−
same,Colour,"[2]; E. coli 260438F, agar",Green
same,Colour,"[2]; E. coli 260439C, agar",Green
same,Colour,"[2]; E. coli 260440S, agar",Green
same,Colour,"[2]; E. coli 260441G, agar",Green
same,Colour,"[2]; E. coli 260458Y, agar",Green
same,Colour,"[2]; E. coli 260459W, agar",Green
same,Colour,"[2]; E. coli 260463D, agar",Green
same,Colour,"[2]; E. coli 260464G, agar",Green
same,Colour,"[2]; E. coli 260471B, agar",−
same,Colour,"[2]; E. coli 260478N, agar",−
same,Colour,"[2]; E. coli 260479Q, agar",Green
same,Colour,"[2]; E. coli 260480M, agar",Green
same,Colour,"[2]; E. coli 260481J, agar",Green
same,Colour,"[2]; E. coli 260483R, agar",−
same,Colour,"[2]; E. coli 260485D, agar",Green
same,Colour,"[2]; E. coli 260486L, agar",Green
same,Colour,"[2]; E. coli 260492J, agar",Green
same,Colour,"[2]; E. coli 260494B, agar",Green
same,Colour,"[2]; E. coli 260495R, agar",−
same,Colour,"[2]; E. coli 260497D, agar",Green
same,Colour,"[2]; E. coli 260502G, agar",Green
same,Colour,"[2]; E. coli 260503Z, agar",Green
same,Colour,"[2]; E. coli 260504N, agar",Green
same,Colour,"[2]; E. coli 260505Q, agar",−
same,Colour,"[2]; E. coli 260506E, agar",Green
same,Colour,"[2]; E. coli 260508Y, agar",Green
same,Colour,"[2]; E. coli 260509W, agar",Green
same,Colour,"[2]; E. coli 260510R, agar",Green
same,Colour,"[2]; E. coli 260511X, agar",Green
same,Colour,"[2]; E. coli 260514G, agar",−
same,Colour,"[2]; E. coli 260515Z, agar",−
same,Colour,"[2]; E. coli 260521S, agar",Green
same,Colour,"[2]; E. coli 260522Z, agar",Green
same,Colour,"[2]; E. coli 260532S, agar",Green
same,Colour,"[2]; E. coli 260533G, agar",Green
same,Colour,"[2]; E. coli 260536Q, agar",Green
same,Colour,"[2]; E. coli 260537E, agar",−
same,Colour,"[2]; E. coli 260538H, agar",−
same,Colour,"[2]; E. coli 260539Y, agar",Green
same,Colour,"[2]; E. coli 260541R, agar",Green
same,Colour,"[2]; E. coli 260545G, agar",Green
same,Colour,"[2]; E. coli 260547N, agar",Green
same,Colour,"[2]; E. coli 260548Q, agar",Green
same,Colour,"[2]; E. coli 260549E, agar",Green
same,Colour,"[2]; E. coli 260553X, agar",−
same,Colour,"[2]; E. coli 260554D, agar",Green
same,Colour,"[2]; E. coli 260555L, agar",Green
same,Colour,"[2]; E. coli 260563B, agar",Green
same,Colour,"[2]; E. coli 260564R, agar",Green
same,Colour,"[2]; E. coli 260578D, agar",−
same,Colour,"[2]; E. coli 2603121P, agar",−
